Among the data in patent US20180353462A1, “[…] AGENTS […] FLAVONOID DERIVATIVES TARGETING KINASES, SIRTUINS AND ONCOGENIC AGENTS FOR THE TREATMENT OF CANCERS” (priority 2015, published 2018) are IC50 values, retold here.

One test deals with T1, KIT(L576P) (Homo sapiens, UniProt P10721, L576P).
T1 construct: made in house
As to the kind of experiment: Kinase competition binding assay, KIT(L576P). Particulars: Table 1 kinase panel. As to the method:
(§1) Cannabis flavonoids and their analogs were subjected to kinase inhibition assay. The compounds were first screened at a single concentration of 10 μM in the primary assay. […]. To determine the kd or IC50 values, competition binding assays were established, authenticated and executed as described previously. Fabian et al., “A Small Molecule-Kinase Interaction Map For Clinical Kinase Inhibitors.”, Nat Biotechnol, 23(3):329-36, Epub (2005). See also, Karaman et al., “A Quantitative Analysis Of Kinase Inhibitor Selectivity”, Nat. Biotechnol. […] For most assays, kinases were fused to T7 phage strains (Fabian, supra) and for the other assays, kinases were produced in HEK-293 cells after which they were tagged with DNA for quantitative PCR detection. In general, full-length constructs were used for small, single domain kinases, and catalytic domain constructs for large multi-domain kinases. The binding assays utilized streptavidin-coated magnetic beads treated with biotinylated small molecule ligands for 30 minutes at room temperature which generated affinity resins for the kinase assays. The liganded beads were blocked with excess biotin and washed with blocking buffer (SeaBlock (Pierce), 1% BSA, 0.05% Tween 20, 1 mM DTT) to remove unbound ligand and to reduce non-specific phage binding. […] Test compounds were prepared as 40× stocks in 100% DMSO and diluted directly into the assay (Final DMSO concentration=2.5%). All reactions were performed in polypropylene 384-well plates in a final volume of 0.04 ml. […] The beads were then re-suspended in elution buffer (1×PBS, 0.05% Tween 20, 0.5 μM non-biotinylated affinity ligand) and incubated at room temperature with shaking for 30 minutes. The kinase concentration in the eluates was measured by quantitative PCR. An illustration of the kinase interaction process is presented below. Kd/IC50 values were determined using a standard dose response curve using the hill equation. Curves were fitted using a non-linear least square fit with the Levenberg-Marquardt algorithm.
(§2) The compound(s) were screened at 10 μM and results for primary screen binding interactions are reported as ‘% Ctrl’, where lower numbers indicate stronger hits in the matrix.

For the next test, the target named is T2, BIKE (Homo sapiens, UniProt Q9NSY1).
T2 construct: made in house
Kind of test: Kinase competition binding assay, BIKE. Particulars: Table 1 kinase panel. How it is done:
as §1, §2

A further test concerns the target T3, SIRT-1 (Homo sapiens, UniProt Q96EB6).
T3 sequence (Q96EB6 1-747): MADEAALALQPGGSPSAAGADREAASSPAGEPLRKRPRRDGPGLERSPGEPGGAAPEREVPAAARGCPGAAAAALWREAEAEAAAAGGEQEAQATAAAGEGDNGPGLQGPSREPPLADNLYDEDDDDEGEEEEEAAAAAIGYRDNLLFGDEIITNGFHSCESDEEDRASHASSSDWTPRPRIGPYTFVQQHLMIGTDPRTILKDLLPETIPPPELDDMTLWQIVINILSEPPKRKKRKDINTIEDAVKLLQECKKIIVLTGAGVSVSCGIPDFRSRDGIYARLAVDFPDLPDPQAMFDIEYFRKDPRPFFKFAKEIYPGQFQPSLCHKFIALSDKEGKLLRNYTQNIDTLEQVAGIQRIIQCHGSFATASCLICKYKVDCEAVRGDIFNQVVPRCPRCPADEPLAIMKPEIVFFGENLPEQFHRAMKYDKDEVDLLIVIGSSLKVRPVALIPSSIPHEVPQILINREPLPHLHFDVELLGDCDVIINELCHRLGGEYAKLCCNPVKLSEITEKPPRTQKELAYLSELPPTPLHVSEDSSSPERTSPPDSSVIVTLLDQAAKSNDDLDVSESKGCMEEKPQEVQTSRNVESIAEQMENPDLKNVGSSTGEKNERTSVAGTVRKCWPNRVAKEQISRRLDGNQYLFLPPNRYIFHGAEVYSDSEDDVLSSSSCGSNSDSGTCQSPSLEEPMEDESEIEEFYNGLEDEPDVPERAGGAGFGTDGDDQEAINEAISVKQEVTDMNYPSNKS
Kind of test: Inhibition of sirtuins, SIRT-1. Format: biochemical. The following applies: Table 3 SIRT. From the text:
Inhibition of Sirtuins, Matrix Metalloproteinase, Bromodomains was Also Confirmed Using Standard Protocols and the Results are Present in Table 2.

The target in another test is T4, KIT(V559D) (Homo sapiens, UniProt P10721, V559D).
T4 construct: made in house
Kind of test: Kinase competition binding assay, KIT(V559D). Particulars: Table 1 kinase panel. As to the method: as §1, §2

The target in a further test is T5, KIT (Homo sapiens, UniProt P10721).
T5 construct: made in house
Kind of test: Kinase competition binding assay, KIT. Particulars: Table 1 kinase panel. How it is done: as §1, §2

In another test the test system is U87 (Glioma). As to the kind of experiment: WST-1 anticancer cell proliferation assay, U87. The test is classed as cell-based. Particulars: 72 hours. As to the method: Bioactivity of the above-described compounds has been verified by an anticancer cell proliferation assay using the WST-1 (4-[3-(4-iodophenyl)-2-(4-nitrophenyl)-2H-5-tetrazolio]-1, 3-benzene disulfonate) colorimetric assay by Roche Life Sciences®. Anticancer activity was tested against several standard cancer cell lines including brain, breast, Kaposi sarcoma, leukemia, lung, melanoma, tenosynovial giant cell tumor, ovarian, pancreatic, colon and prostate cancer. Cells were trypsinized and plated into 96 well plates in 50 μl of media and incubated overnight. The next day approximately 18 hours after plating, 50 μl of media containing the required flavonoid-based pharmaceutical composition was added per well. Cells were plated at a density so that 72 hours post drug addition, the cells will be in log phase (500)-2000 cells/well). The compounds and extracts were solubilized in Dimethyl sulfoxide (DMSO). The cells are allowed to proliferate for 72 hours 37° C. in humidified atmosphere of 5% CO2. The experiment is terminated using WST-1 (Roche®) 10 μl per well and absorbance is read at 450 nm %690 nm. The effect of drugs on growth is assessed as percent of cell viability. The IC50 values were determined from the extract dose versus control growth curves using Graphpad Prism® software. All experiments were carried out in duplicate and the mean results determined.

The target in the next test is T6, PIK3CA(1800L) (Homo sapiens, UniProt P42336, I800L).
T6 construct: T7 phage fusion (most assays) or DNA tag for qPCR (HEK-293-made kinases); made in house
Kind of test: Kinase competition binding assay, PIK3CA(1800L). Particulars: Table 1 kinase panel. As to the method: as §1, §2

In a further test the target is T7, Aurora A (Homo sapiens, UniProt O14965).
T7 construct: made in house
T7 sequence (O14965 1-403): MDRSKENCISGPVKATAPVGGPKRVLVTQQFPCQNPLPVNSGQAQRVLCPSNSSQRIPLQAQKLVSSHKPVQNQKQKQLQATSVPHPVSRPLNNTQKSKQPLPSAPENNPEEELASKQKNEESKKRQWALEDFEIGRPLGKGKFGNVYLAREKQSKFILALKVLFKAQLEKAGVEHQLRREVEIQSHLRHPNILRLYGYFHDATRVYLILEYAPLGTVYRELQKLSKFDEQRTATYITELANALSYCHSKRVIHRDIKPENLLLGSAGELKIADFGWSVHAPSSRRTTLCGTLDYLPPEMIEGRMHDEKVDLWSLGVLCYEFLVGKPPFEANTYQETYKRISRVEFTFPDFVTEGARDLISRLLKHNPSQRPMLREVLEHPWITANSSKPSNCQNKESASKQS
As to the kind of experiment: Kinase competition binding assay, Aurora A. The following applies: Table 1 kinase panel. As to the method: as §1, §2

By IC50 is commonly meant the concentration needed to halve the response being measured. A higher IC50 goes with weaker potency in that assay.

T4 sequence (P10721 26-976 V559D): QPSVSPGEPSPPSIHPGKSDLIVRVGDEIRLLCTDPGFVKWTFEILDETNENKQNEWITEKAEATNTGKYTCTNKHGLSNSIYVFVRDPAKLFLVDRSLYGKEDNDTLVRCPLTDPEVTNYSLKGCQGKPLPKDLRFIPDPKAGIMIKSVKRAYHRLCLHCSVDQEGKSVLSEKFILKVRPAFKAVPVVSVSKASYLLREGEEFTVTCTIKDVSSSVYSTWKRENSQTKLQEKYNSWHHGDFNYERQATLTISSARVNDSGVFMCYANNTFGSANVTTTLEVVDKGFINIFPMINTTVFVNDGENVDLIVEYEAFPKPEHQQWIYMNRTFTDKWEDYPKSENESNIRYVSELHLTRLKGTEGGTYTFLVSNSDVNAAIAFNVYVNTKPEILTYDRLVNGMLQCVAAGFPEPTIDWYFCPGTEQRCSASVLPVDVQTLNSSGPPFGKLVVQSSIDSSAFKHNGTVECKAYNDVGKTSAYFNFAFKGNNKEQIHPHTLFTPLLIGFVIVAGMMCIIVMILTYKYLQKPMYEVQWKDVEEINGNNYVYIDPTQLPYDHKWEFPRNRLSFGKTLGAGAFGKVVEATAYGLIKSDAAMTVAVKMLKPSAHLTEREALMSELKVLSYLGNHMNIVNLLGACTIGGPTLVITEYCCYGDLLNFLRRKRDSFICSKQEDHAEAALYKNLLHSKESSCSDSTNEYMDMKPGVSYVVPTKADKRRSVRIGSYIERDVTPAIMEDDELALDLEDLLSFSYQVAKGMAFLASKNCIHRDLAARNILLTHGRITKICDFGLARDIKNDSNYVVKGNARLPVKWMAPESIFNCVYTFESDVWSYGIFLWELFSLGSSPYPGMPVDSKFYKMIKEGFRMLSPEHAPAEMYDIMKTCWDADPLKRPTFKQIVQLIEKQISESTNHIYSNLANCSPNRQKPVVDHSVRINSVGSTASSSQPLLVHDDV
T6 sequence (P42336 whole entry I800L, the tested form may be a part): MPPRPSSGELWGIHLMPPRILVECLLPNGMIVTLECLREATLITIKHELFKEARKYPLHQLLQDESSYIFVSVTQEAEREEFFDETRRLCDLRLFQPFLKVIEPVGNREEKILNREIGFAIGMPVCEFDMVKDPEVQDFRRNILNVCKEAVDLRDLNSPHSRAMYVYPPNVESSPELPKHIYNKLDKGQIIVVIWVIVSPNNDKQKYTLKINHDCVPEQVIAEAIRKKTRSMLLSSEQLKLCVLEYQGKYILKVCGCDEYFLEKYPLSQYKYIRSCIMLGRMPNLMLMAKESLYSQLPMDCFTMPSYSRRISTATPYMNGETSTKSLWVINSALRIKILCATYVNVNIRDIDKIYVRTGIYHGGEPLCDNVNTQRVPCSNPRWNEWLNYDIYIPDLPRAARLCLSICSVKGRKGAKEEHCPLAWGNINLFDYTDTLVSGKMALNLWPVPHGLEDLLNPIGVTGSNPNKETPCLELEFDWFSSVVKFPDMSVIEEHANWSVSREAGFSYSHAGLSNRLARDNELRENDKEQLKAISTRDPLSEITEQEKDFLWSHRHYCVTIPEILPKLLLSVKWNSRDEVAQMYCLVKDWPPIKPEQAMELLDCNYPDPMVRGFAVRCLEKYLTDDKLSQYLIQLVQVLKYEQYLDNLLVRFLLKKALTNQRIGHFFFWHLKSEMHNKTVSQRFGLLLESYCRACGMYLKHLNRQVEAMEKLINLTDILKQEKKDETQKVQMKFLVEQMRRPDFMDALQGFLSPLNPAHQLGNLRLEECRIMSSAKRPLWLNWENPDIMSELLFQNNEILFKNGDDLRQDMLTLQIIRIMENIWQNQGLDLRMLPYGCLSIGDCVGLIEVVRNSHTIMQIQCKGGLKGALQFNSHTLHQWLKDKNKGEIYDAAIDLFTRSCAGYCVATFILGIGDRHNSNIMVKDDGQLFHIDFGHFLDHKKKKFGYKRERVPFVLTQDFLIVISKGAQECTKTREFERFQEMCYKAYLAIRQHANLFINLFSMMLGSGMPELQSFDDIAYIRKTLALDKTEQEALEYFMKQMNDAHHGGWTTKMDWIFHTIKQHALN
T5 sequence (P10721 26-976): as the sequence (P10721 26-976 V559D) above, with D534V counted along it
T1 sequence (P10721 26-976 L576P): as the sequence (P10721 26-976 V559D) above, with D534V, L551P counted along it
T2 sequence (Q9NSY1 whole entry): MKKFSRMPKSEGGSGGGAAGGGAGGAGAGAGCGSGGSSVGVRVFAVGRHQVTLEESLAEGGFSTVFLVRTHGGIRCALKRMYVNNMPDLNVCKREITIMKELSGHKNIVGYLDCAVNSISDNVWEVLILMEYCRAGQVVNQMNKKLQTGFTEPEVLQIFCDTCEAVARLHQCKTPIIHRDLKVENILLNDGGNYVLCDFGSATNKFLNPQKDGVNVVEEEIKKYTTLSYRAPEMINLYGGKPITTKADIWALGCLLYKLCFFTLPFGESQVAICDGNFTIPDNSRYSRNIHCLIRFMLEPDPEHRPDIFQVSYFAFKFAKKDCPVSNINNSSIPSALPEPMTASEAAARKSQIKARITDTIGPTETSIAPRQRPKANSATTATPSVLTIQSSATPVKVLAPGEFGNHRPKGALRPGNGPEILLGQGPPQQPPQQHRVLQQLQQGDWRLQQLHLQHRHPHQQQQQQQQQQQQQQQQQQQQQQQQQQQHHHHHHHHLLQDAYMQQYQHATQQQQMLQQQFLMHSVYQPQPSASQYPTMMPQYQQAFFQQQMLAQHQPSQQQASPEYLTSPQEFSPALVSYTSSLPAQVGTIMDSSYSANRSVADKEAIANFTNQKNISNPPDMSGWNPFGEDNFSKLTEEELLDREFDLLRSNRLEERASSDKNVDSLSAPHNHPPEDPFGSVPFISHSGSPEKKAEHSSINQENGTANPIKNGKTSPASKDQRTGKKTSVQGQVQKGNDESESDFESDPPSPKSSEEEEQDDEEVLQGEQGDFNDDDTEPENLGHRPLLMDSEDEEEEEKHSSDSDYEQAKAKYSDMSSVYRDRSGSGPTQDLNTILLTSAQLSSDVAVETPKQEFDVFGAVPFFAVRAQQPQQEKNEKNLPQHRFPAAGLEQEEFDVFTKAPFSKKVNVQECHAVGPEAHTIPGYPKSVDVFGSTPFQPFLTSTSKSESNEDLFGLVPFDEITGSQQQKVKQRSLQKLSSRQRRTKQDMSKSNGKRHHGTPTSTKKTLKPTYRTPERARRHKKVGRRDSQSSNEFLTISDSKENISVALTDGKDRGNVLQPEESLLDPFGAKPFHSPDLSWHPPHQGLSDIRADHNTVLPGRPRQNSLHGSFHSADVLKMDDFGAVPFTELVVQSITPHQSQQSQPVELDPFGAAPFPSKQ

As for `COc1cc(-c2cc(=O)c3c(O)cc(O)c(C/C=C(\C)CCC=C(C)C)c3o2)ccc1O` [FBL-03C], the 50% inhibitory concentration (IC50) at KIT(L576P) was over 1000 nM; on BIKE, 21 nM; against SIRT-1, 39.5 µM; on KIT(V559D) it was over 1000 nM; on KIT, over 1000 nM; in the test on U87 (Glioma), 12.5 µM. This molecule came in with an IC50 on PIK3CA(1800L) of 780 nM.

As to `COc1ccc(-c2cc(=O)c3c(O)c(C/C=C(\C)CCC=C(C)C)c(O)cc3o2)cc1OC` [FBL-03D], the 50% inhibitory concentration (IC50) at Aurora A, at KIT(L576P), at BIKE, at KIT(V559D), at KIT and on PIK3CA(1800L) was over 30000 nM throughout.

With `COc1cc(-c2cc(=O)c3c(O)cc(O)c(CC=C(C)C)c3o2)ccc1O` [FBL-03G], the half-inhibitory concentration (IC50) is 1090 nM on Aurora A; under 1000 nM at KIT(L576P); over 20000 nM on BIKE; under 1000 nM at KIT(V559D); under 1000 nM on KIT; 5.46 µM in the test on U87 (Glioma). On PIK3CA(1800L), the IC50 was over 20000 nM.

Turning to `COc1cc(-c2cc(=O)c3c(O)c(C/C=C(\C)CCC=C(C)C)c(O)cc3o2)ccc1O` [FBL-03A], the IC50 is 730 nM at Aurora A; 180 nM on KIT(L576P); over 20000 nM on BIKE; 19 µM on SIRT-1; 200 nM on KIT(V559D); 350 nM at KIT. Further, the half-inhibitory concentration (IC50) was 34 µM in the test on U87 (Glioma) and over 20000 nM at PIK3CA(1800L).

Turning to `COc1cc(-c2cc(=O)c3c(O)c(CC=C(C)C)c(O)cc3o2)ccc1O` [FBL-03B], the IC50 is 12 nM at Aurora A; under 1000 nM at KIT(L576P); over 20000 nM on BIKE; 27.4 µM on SIRT-1; under 1000 nM on KIT(V559D); under 1000 nM on KIT. The same molecule came in with an IC50 in the test on U87 (Glioma) of 6.2 µM.
